Values of other authors as cited in patent US7060710B2, “Isoxazole pyrazoloindane derivatives as cognition enhancing GABAA α5 subtype ligands” (Merck Sharp & Dohme Ltd., priority 2001, dated 2006).

How the values were obtained:
[1] = reported by McNamara and Skelton
[2] = background statement

For COC(=O)c1cc2c(cn1)[nH]c1ccccc12 [β-CCM], the “spatial learning in the Morris watermaze” value [1] is listed as “enhanced spatial learning” and the proconvulsant activity [2] is listed as “proconvulsant”.
